From patent publication US20190388421A1, “NOVEL COMPOUNDS AND PHARMACEUTICAL COMPOSITIONS THEREOF FOR THE TREATMENT OF FIBROSIS” (Galapagos NV, priority 2016, published 2019)
pEC50, pIC50: −log10 of the molar value.

Legend:
[1] = target: T1, human GPCR sphingosine 1-phosphate receptor 2 (S1PR2) (Homo sapiens, UniProt O95136); assay: S1P2 antagonist assay (Ca2+ flux, S1P at EC80); assay type: cell-based; details: CHO-S1PR2 cells, highest concentration 20 μM
T1 construct: host or cells: CHO
Summary of the method: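 CHO cells stably overexpressing human S1PR2, serum-starved 1 h and loaded with Fluo8 dye, were read for 3 min after compound addition, then stimulated with S1P at EC80 after 15 min at 37 °C. Top concentration 20 μM in a 10-point 1/3 series; Ca2+ fluorescence ratio normalized to vehicle and S1P EC80, giving EC50.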

[2] = target: T2, human GPCR sphingosine 1-phosphate receptor 1 (S1PR1) (Homo sapiens, UniProt P21453); assay: S1PR1 selectivity assay (Ca2+ flux, antagonist); assay type: cell-based; details: S1P1 antagonist EC50, CHO cells overexpressing human S1PR1 and Gq protein
T2 construct: host or cells: CHO
Summary of the method: (§1)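 CHO cells stably overexpressing human S1PR1 or S1PR5 with Gq were preincubated with compound 15 min at 37 °C, then stimulated with S1P at EC80 (S1PR1) or an S1PR5-specific agonist (S1PR5). Ca2+ fluorescence was read for 3 min; 10-point 1/3 dilutions from 20 μM final, normalized to vehicle and EC80 trigger, gave EC50.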

[3] = target: T3, human GPCR sphingosine 1-phosphate receptor 5 (S1PR5) (Homo sapiens, UniProt Q9H228); assay: S1PR5 selectivity assay (Ca2+ flux, antagonist, S1PR5 specific agonist trigger); assay type: cell-based; details: S1P5 antagonist EC50, CHO cells overexpressing human S1PR5 and Gq protein
T3 construct: host or cells: CHO
Summary of the method: as §1

S1PR2 = target: T4, S1PR2 (Homo sapiens, UniProt O95136); assay: GTP-γS binding assay ([35S]GTPγS, S1P at EC80, S1PR2 membranes); assay type: biochemical; details: membranes from stable cell line over expressing S1PR2, read-out: S1PR2 EC
T4 construct: expressed in transfected cells
Summary of the method: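 Compounds tested against S1P at its EC80 on membranes (2.5 μg/well) from a stable S1PR2-overexpressing line, pre-incubated with 1 μM GDP 15 min at 4 °C. Buffer: 20 mM Tris pH 7.5, 10 mM MgCl2, 100 mM NaCl, 0.1% fatty-acid-free BSA, 50 ug/ml saponin. Incubated 4 h at room temperature; [35S]GTPγS binding read by WGA SPA beads.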

HFL-1 cells [4] = assay: IL8 assay (S1P induced IL-8 production); assay type: cell-based; details: Homo sapiens, HFL1; S1P (1 μM) induced IL-8, HFL-1 cells, without HSA
Summary of the method: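 Serum-starved human fetal lung fibroblasts were preincubated with compound for 1 h at 37° C (10-point, 1/3 dilution, top 30 μM, 0.3% DMSO). S1P at 1 μM final was then added for 16–24 h, and IL-8 in the supernatant was measured by ELISA.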

HFL-1 cells [5] = assay: IL8 assay in the presence of Human Serum Albumin; assay type: cell-based; details: HFL1, S1P (5 μM) induced IL-8, HFL-1 cells, with 2% HSA, read-out: HSA IL8 EC50
Summary of the method: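 Cells serum-starved with 1.95% HSA, pre-treated 1 h with compound (10-point 1/3 dilution from 30 μM, 0.3% DMSO), then stimulated with 5 μM S1P for 16 to 24 h at 37° C. Supernatant IL-8 measured by ELISA.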

T3 sequence (Q9H228 whole entry): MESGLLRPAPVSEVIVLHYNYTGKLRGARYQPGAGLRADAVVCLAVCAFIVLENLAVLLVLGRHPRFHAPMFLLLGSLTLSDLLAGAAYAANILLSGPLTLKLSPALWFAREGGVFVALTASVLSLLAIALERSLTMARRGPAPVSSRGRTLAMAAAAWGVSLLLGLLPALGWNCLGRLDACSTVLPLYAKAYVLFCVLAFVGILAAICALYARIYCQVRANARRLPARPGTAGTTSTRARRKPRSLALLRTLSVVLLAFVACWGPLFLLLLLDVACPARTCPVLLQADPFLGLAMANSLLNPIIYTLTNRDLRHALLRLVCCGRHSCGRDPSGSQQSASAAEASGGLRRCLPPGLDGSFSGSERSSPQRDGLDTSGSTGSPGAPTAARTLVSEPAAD
T2 sequence (P21453 whole entry): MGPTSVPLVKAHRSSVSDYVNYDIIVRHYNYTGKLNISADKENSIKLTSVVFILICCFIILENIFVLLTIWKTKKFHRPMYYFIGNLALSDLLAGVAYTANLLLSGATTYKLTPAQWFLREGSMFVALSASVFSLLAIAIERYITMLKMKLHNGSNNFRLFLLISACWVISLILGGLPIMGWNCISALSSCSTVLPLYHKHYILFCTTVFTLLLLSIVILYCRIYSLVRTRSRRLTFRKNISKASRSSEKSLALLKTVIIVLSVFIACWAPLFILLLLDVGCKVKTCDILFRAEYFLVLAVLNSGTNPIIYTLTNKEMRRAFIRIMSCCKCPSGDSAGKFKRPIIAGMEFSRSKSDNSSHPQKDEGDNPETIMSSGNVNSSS
T1 sequence (O95136 whole entry): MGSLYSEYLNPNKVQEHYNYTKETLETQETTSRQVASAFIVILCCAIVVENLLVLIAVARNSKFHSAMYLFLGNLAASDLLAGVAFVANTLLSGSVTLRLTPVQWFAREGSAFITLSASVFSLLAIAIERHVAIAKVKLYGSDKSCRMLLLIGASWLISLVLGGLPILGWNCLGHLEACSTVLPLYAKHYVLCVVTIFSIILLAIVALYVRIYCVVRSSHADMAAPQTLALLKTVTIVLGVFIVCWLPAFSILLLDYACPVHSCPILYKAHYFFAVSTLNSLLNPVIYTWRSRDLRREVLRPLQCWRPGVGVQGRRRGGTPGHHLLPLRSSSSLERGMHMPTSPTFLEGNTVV
T4 sequence (O95136 whole entry): as above

pEC50 [1]	pEC50 [2]	pEC50 [3]	pEC50 (S1PR2)	pEC50 (HFL-1 cells [4])	pIC50 (HFL-1 cells [5])	Structure (SMILES)
7.59	≤ 4.70	5.18	6.94	7.66	6.32	CCOc1cc(NC(=O)NC(C)c2cc(C)c(-c3cn(C)nc3C(F)(F)F)nn2)cc(Cl)n1 (stereo not drawn) [Compound 3, 1-(2-chloro-6-ethoxy-4-pyridyl)-3-[1-[5-methyl-6-[1-methyl-3-(trifluoromethyl)pyrazol-4-yl]pyridazin-3-yl]ethyl]urea]
7.77	≤ 4.70	5.18	6.47	7.45	6.75	CCOc1cc(NC(=O)NCc2cc(C)c(-c3cn(CC4COCCO4)nc3C(F)(F)F)nn2)cc(C(F)(F)F)n1 (stereo not drawn) [Compound 55, 1-[[6-[1-(1,4-dioxan-2-ylmethyl)-3-(trifluoromethyl)pyrazol-4-yl]-5-methyl-pyridazin-3-yl]methyl]-3-[2-ethoxy-6-(trifluoromethyl)-4-pyridyl]urea]
7.66	4.89	≤ 4.70	7.09	7.82	6.93	Cc1cc(NC(=O)NCc2cc(C)c(-c3cn(C)nc3C(F)(F)F)nn2)c(C)c(OCC(F)F)n1 [Compound 74, 1-[2-(2,2-difluoroethoxy)-3,6-dimethyl-4-pyridyl]-3-[[5-methyl-6-[1-methyl-3-(trifluoromethyl)pyrazol-4-yl]pyridazin-3-yl]methyl]urea]
7.94	5.23	5.18	7.15	8.11	7.10	CCOc1cc(NC(=O)NCc2cc(C)c(-c3cn(C4CCOC4)nc3C(F)(F)F)nn2)cc(C(F)(F)F)n1 (stereo not drawn) [Compound 52, 1-[2-ethoxy-6-(trifluoromethyl)-4-pyridyl)-3-[[5-methyl-6-[1-tetrahydrofuran-3-yl-3-(trifluoromethyl)pyrazol-4-yl]pyridazin-3-yl]methyl]urea]
7.71	≤ 4.70	5.18	6.68	7.39	7.07	CCOc1nc(C(F)(F)F)cc(NC(=O)NC(C)c2cc(C)c(-c3cn(C)nc3C(F)(F)F)nn2)c1C (stereo not drawn) [Compound 45, 1-[2-ethoxy-3-methyl-6-(trifluoromethyl)-4-pyridyl]-3-[1-[5-methyl-6-[1-methyl-3-(trifluoromethyl)pyrazol-4-yl]pyridazin-3-yl]ethyl]urea]
7.38	5.85	6.60	6.48	7.09	5.66	CCOc1cc(NC(=O)NCc2cc(C)c(N3CC(C)OC(C)C3)nn2)cc(C(F)(F)F)n1 (stereo not drawn) [Compound 87, 1-[[6-(2,6-dimethyl-morpholin-4-yl)-5-methyl-pyridazin-3-yl]methyl]-3-[2-ethoxy-6-(trifluoromethyl)-4-pyridyl]urea]
7.48	5.18	6.20	6.52	7.36	5.64	CCOc1cc(NC(=O)NCc2cc(C)c(N3CCCc4nn(C)cc43)nn2)cc(C(F)(F)F)n1 [Compound 96, 1-[2-ethoxy-6-(trifluoromethyl)-4-pyridyl]-3-[[5-methyl-6-(2-methyl-6,7-dihydro-5H-pyrazolo[4,3-b]pyridin-4-yl)pyridazin-3-yl]methyl]urea]
6.34	5.18	5.68	5.93	6.61	4.52	Cc1cc(CNC(=O)Nc2cc(Cl)nc(OCC(F)F)c2)nnc1N1CCC(F)(CO)C1 (stereo not drawn) [Compound 90, 1-[2-chloro-6-(2,2-difluoroethoxy)-4-pyridyl]-3-[[6-[3-fluoro-3-(hydroxymethyl)pyrrolidin-1-yl]-5-methyl-pyridazin-3-yl]methyl]urea]
7.18	5.68	4.96	6.53	7.26	6.08	CN(C)c1cc(CNC(=O)Nc2cc(Cl)nc(OCC(F)F)c2)nnc1-c1cn(C)nc1C(F)(F)F [Compound 63, 1-[2-chloro-6-(2,2-difluoroethoxy)-4-pyridyl]-3-[[5-(dimethylamino)-6-[1-methyl-3-(trifluoromethyl)pyrazol-4-yl]pyridazin-3-yl]methyl]urea]
8.12	5.18	5.34	7.61	9.05	7.76	CCOc1nc(C#N)cc(NC(=O)NCc2cc(C)c(-c3cn(C)nc3C(F)(F)F)nn2)c1C [Compound 57, 1-(6-cyano-2-ethoxy-3-methyl-4-pyridyl)-3-[[5-methyl-6-[1-methyl-3-(trifluoromethyl)pyrazol-4-yl]pyridazin-3-yl]methyl]urea]
6.66	5.18	5.18	5.98	6.91	5.00	Cc1cc(CNC(=O)Nc2cc(OCC3(C(F)(F)F)CC3)nc(C(F)(F)F)c2)nnc1-c1cn(C)nc1C(F)(F)F [Compound 39, 1-[[5-methyl-6-[1-methyl-3-(trifluoromethyl)pyrazol-4-yl]pyridazin-3-yl]methyl]-3-[2-(trifluoromethyl)-6-[[1-(trifluoromethyl)cyclopropyl]methoxy]-4-pyridyl]urea]
7.82	5.60	5.34	6.82	7.94	6.56	CCOc1cc(NC(=O)NCc2cc(C)c(-c3cn(C)nc3C3CC3)nn2)cc(C(F)(F)F)n1 [Compound 54, 1-[[6-(3-cyclopropyl-1-methyl-pyrazol-4-yl)-5-methyl-pyridazin-3-yl]methyl]-3-[2-ethoxy-6-(trifluoromethyl)-4-pyridyl]urea]
8.00	5.40	5.18	7.28	8.18	7.29	CCOc1cc(NC(=O)NCc2cc(C)c(-c3cn(CCOC)nc3C(F)(F)F)nn2)cc(C(F)(F)F)n1 [Compound 53, 1-[2-ethoxy-6-(trifluoromethyl)-4-pyridyl]-3-[[6-[1-(2-methoxyethyl)-3-(trifluoromethyl)pyrazol-4-yl]-5-methyl-pyridazin-3-yl]methyl]urea]
7.96	5.18	≤ 4.70	7.45	8.34	7.54	CCOc1cc(NC(=O)NCc2cc(C)c(-c3cn(C)nc3C(F)(F)F)nn2)cc(C#N)n1 [Compound 18, 1-(2-cyano-6-ethoxy-4-pyridyl)-3-[[5-methyl-6-[1-methyl-3-(trifluoromethyl)pyrazol-4-yl]pyridazin-3-yl]methyl]urea]
7.40	≤ 4.70	≤ 4.70	6.96	7.50	6.70	CCOc1nc(Cl)cc(NC(=O)NCc2cc(C)c(-c3cn(C)nc3C(F)(F)F)nn2)n1 [Compound 38, 1-(6-chloro-2-ethoxy-pyrimidin-4-yl)-3-[[5-methyl-6-[1-methyl-3-(trifluoromethyl)pyrazol-4-yl]pyridazin-3-yl]methyl]urea]
8.22	5.18	5.42	6.71	7.49	5.00	CCOc1cc(NC(=O)NCc2cc(C)c(N3CCC(F)(F)C3)nn2)cc(Cl)n1 [Compound 81, 1-(2-Chloro-6-ethoxy-pyridin-4-yl)-3-[6-(3,3-difluoro-pyrrolidin-1-yl)-5-methyl-pyridazin-3-ylmethyl]-urea]
